Data on five molecules can be found in patent US9340790B2, “Method for constructing recombinant bacterium for producing non-native protein, and utilization of same” (RIKEN, priority 2010, dated 2016).

Type in all cases: cell-based, Escherichia coli
The subject of assay [1] is BW25113RFzero-iy strain. To be noted: LB liquid culture medium with the non-natural amino acid added, shaking at 37° C. overnight. As to the method:
First, a minute amount of glycerol stock of a BW25113RFzero-iy strain was added to (i) an LB liquid culture medium and (ii) an LB liquid culture medium to which 3-iodotyrosine (IY), 3-bromotyrosine (BrY) or 3-chlorotyrosine (CIY) had been added, and incubated with shaking at 37° C. overnight. In this way, the growth of the BW25113RFzero-iy strain was examined.

In assay [2] the test system is RFzero-iy strains (BW25113RFzero-iy, HMS174RFzero-iy, BL21RFzero-iy). Put plainly: Dependence of growth on 3-iodotyrosine, spotting on non-selective LB culture medium. As to conditions: non-selective LB culture medium with or without 3-iodotyrosine. As to the method: Furthermore, how much the growth of each of the RFzero-iy strains depends on non-natural amino acids was checked. A cell culture having been incubated overnight was diluted, the diluted culture was spotted on (i) a non-selective LB culture medium containing 3-iodotyrosine and (ii) a non-selective LB culture medium containing no 3-iodotyrosine. The media were further incubated. […] This is consistent with the fact that UAG translation activity is necessary in a cell to avoid lethality caused by prfA knockout.

The test system of assay [3] is RFzero-q strain. Kind of assay: Chloramphenicol (Cm) resistance of cat transformants. The text has this: In order to confirm that the RFzero-q strain allows insertion of a glutamic acid at an amber codon, the RFzero-q strain was transformed with a mutated gene which codes for chloramphenicol acetyltransferase (cat), in which mutated gene there are three amber codons in ORF (such a mutated gene is referred to as cat(3Am)). […] The “X”s in the amino acid sequence shown in (a) of FIG. 5 indicate the positions of amber codons of the cat(3Am), and are glutamic acids in the case of the RFzero-q strain (SEQ ID NO: 17).
(§1) Furthermore, a RFzero-q strain was transformed with a mutated gene which codes for cat, and in which mutated gene there are ten amber codons in ORF (such a mutated gene is referred to as cat(10Am)). […] The “X”s in the amino acid sequence shown in (b) of FIG. 5 indicate positions of amber codons of the cat(10Am), and are glutamic acids in the case of the RFzero-q strain (SEQ ID NO: 18).
(§2) In order to examine if the UAG translation efficiency was improved, a cat(13Am) in which all 13 of the glutamine codons on the cat gene were replaced with UAG was introduced into the RFzero-q3 and RFzero-q7 strains, respectively. […] This was lower than Cm resistance (400 μg/ml) in the HST08 and RFzero-q strains transformed with pACYC184 carrying the wild-type cat gene.

Assay [4] deals with HST08. Described as above.
Description: as §1, §2

For assay [5], the system named is RFzero-q3 strain. Put plainly: Chloramphenicol (Cm) resistance of cat(13Am) transformant. To be noted: RFzero-q3 strain with cat(13Am); listed as Cm. Here is the method:
as §2

Assay [6] relates to RFzero-q7 strain. The description is as above. To be noted: RFzero-q7 strain with cat(13Am). As to the method:
as §2

Assay [7] relates to BW25113 (prfA+ strain). Put plainly: Efficiency of non-natural amino acid introduction at UAG codon in prfA+ strain (western blotting, TRX-GST fusion). As to conditions: prfA+ condition, compared with 3-iodotyrosine. The text has this:
In this experiment, a GST gene containing a UAG codon near the N terminal was introduced, together with an expression unit for introducing a non-natural amino acid, into BW25113 which was a prfA^+ strain. Then, the efficiency of translation was checked. The GST gene containing a UAG codon near the N terminal is incorporated in a plasmid so that a fusion protein of the GST and thioredoxin (TRX) is produced (refer to (a) of FIG. 31). The result is shown in (b) of FIG. 31. […] The strain shown in Lane 1 contains no construct that introduces a non-natural amino acid. As is clear from Lanes 4 to 6, strains into each of which a construct for assigning a UAG codon to 3-iodotyrosine, 4-azidophenylalanine or o-sulfotyrosine has been introduced generate total-length fusion proteins in the presence of corresponding non-natural amino acids (see arrow A in (b) of FIG. 31). Further, in these strains, proteins resulting from termination of translation at the UAG codon were also produced (see arrow B in (b) of FIG. 31). The number in parentheses below each lane indicates the percentage (%) of total-length fusion protein with respect to the sum of the proteins resulting from termination of translation and the full-length fusion protein thus produced. That is, the number indicates the efficiency of non-natural amino acid introduction at the UAG codon. […]
(Immunoblotting shows a protein as a band on a membrane.)

Each structure is given as a SMILES string. “And” between values parts separate entries of the source, which are not always exact repeats. Equal values may be shown once.

Turning to `N[C@@H](Cc1ccc(O)c(I)c1)C(=O)O` [IY, 3-iodotyrosine], the OD600 in assay [1] is 1.36. In addition, the “Dependence of growth on the non-natural amino acid” value in assay [2] is recorded as “totally depended on the presence of 3-iodotyrosine”.

For `O=C(N[C@H](CO)[C@H](O)c1ccc([N+](=O)[O-])cc1)C(Cl)Cl` [chloramphenicol], the “Cm resistance (chloramphenicol concentration in culture medium up to which resistance was shown)” value turned out to be 400 µg/mL in assay [3] (RFzero-q strain transformed with cat(3Am)), 200 µg/mL in assay [3] (RFzero-q strain transformed with cat(10Am)) and 400 µg/mL in assay [3] (RFzero-q strain transformed with wild-type cat). Further, the Cm resistance in assay [3] (RFzero-q strain transformed with pACYC184 carrying the wild-type cat gene) was 400 µg/mL; in assay [4] (HST08 transformed with pACYC184 carrying the wild-type cat gene) it was 400 µg/mL; in assay [5] it was 200 µg/mL and ~400 µg/mL; in assay [6], 200 µg/mL. The “Cm concentration at which the strain did not grow” value in assay [4] (HST08 into which cat(10Am) had been introduced) is below 10 µg/mL.

In assay [1], `N[C@@H](Cc1ccc(O)c(Cl)c1)C(=O)O` [ClY, 3-chlorotyrosine] gave an OD600 of 1.41.

As to `N[C@@H](Cc1ccc(O)c(Br)c1)C(=O)O` [BrY, 3-bromotyrosine], the OD600 in assay [1] came out at 1.39.

As to `[N-]=[N+]=Nc1ccc(C[C@H](N)C(=O)O)cc1` [AzF, 4-azidophenylalanine], in assay [7], the “Efficiency of non-natural amino acid introduction at the UAG codon” value is reported as “lower efficiency than 3-iodotyrosine”.
